In publication PMC11239830, “Synthetic macrolides overcoming MLSBK-resistant pathogens” (Cell Discovery, 2024):
Values after ≈ are worked out from the molar mass of the structure shown. Like-named read-outs stand apart in the source and are kept apart here.

Columns and labels:
[1] = tested on: E. coli S30 extract protein synthesis; assay: In vitro E. coli transcription/translation assay; type: biochemical; details: cell-free transcription/translation, materials from E. coli
Excerpt: The in vitro transcription/translation assay for E. coli utilized materials from the E. coli S30 extract system for circular DNA (L1020, Promega, USA). This kit contains all the necessary components for efficient transcription and translation of a user-provided DNA template. To test the inhibition of protein synthesis, the assay uses plasmid pBESTluc, which contains the firefly luciferase gene, as the DNA template. The intensity of luminescence resulting from luciferase expression corresponds to the efficiency of protein synthesis. The luminescence intensity was quantified in the presence or absence of the tested compounds. […] This experiment was repeated twice independently.

HEK293T cells = assay: CCK-8 assay for cytotoxicity; type: cell-based, human; details: HEK293T, 5 μM, 48 h
Experimental: (§1) HepG2 cells (6 × 10^3) and HEK293T cells (4 × 10^3) were seeded into 96-well plates in 90 μL of DMEM medium containing 10% FBS per well. […] After overnight incubation, the test compound stock solution was diluted with DMEM medium containing 10% FBS to every target concentration, and 10 μL of each was added to each well. Three parallel experiments were set up for each compound. After incubation for 48 h, 10 μL of cell counting kit-8 (CCK-8) reagent was added to each well in sequence according to the manufacturer’s instructions. […] This experiment was independently repeated three times. The data were processed by GraphPad Prism.

[2] = CCK-8 assay for cytotoxicity; type: cell-based, human; details: human, HEK293T cells, HEK293T cell viability
Experimental: as §1

S. pneumoniae = assay: MIC, broth microdilution; type: cell-based, Streptococcus pneumoniae
Procedure, shortened: (§2)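 Minimum inhibitory concentrations were measured by broth microdilution following CLSI guidelines. Plates were incubated at 37 °C for 16–20 h before results were read and recorded, and each determination was repeated at least three times.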

S. pyogenes = assay: MIC, broth microdilution; type: cell-based, Streptococcus pyogenes
Procedure, shortened: as §2

WT S. aureus ribosomes = assay: PURE in vitro translation inhibition assay; type: biochemical, Staphylococcus aureus; details: mean ± SD
Experimental: (§3) To validate the in vitro activity of our compounds, we employed an in vitro reconstituted E. coli Protein synthesis Using a Recombinant Elements (PURE) translation system, substituting E. coli ribosomes with the purified S. aureus ribosomes.
(§4) 5 μL of PURE reaction mix that translates a gene encoding the Nanoluc luciferase was set up in the presence or absence of tested compounds. Protein synthesis was initiated by incubating reactions at 37 °C for 60 min and stopped by placing on ice for 5 min. Luciferase activity was quantified using the Nano-Glo luciferase assay system and read on a GloMax 20/20 luminometer (Promega, USA). For each compound, the in vitro translation inhibition assay was performed in three biological triplicates over a range of concentrations from 0.001 μM to 1000 μM. A compound-free control was used to normalize luminescence measurements. The calculated luminescence percentages were plotted against compound concentrations on a semilog scale using GraphPad Prism.

[3] = tested on: 15B196 S. aureus ribosomes (A2058-methylated); assay: PURE in vitro translation inhibition assay; type: biochemical, Staphylococcus aureus; details: mean ± SD
Experimental: as §3, §4

M. catarrhalis = assay: MIC, broth microdilution; type: cell-based, Moraxella catarrhalis; details: Moraxella catarrhalis; M. catarrhalis 13L332, Ery-S; read-out: MIC
Procedure, shortened: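 Following CLSI guidance, two-fold serial dilutions were tested against a final bacterial load of 5 × 10^5 CFU/mL in cation-adjusted broth. Values are from at least three repeats.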

S. aureus = assay: MIC, broth microdilution; type: cell-based, Staphylococcus aureus
Procedure, shortened: as §2

[4] = tested on: E. coli JW5503 ΔtolC pDualrep2; assay: pDualrep2 dual-reporter assay; type: cell-based; details: red = Katushka2S, translation inhibitors; green = RFP, DNA damage
[5] = Staphylococcus aureus, MRSA, MRSA (13)
[6] = Staphylococcus aureus, i-MLSB S. aureus (10)

CC[C@H]1OC(=O)[C@H](C)[C@@H](OC(=O)NCCCOCCC#Cc2ccc3c(=O)c(C(=O)O)cn(C)c3c2)[C@H](C)[C@@H](O[C@@H]2O[C@H](C)C[C@H](N(C)C)[C@H]2O)[C@](C)(OC)C[C@@H](C)C(=O)[C@H](C)[C@H]2NC(=O)O[C@@]21C [MCX-190]
IC50 [1]: 670 nM | cytotoxicity at 5 μM (HEK293T cells): significantly reduced cytotoxicity compared to TcmX | CC50 at 48 h [2]: > 100000 nM | MIC (S. pneumoniae; S. pneumoniae 07P390, c-ermB, listed as 95g): 0.06 µg/mL (≈ 0.0619 µM) | MIC (S. pneumoniae; S. pneumoniae 21C315, Clinical, c-ermB): 0.12 µg/mL (≈ 0.124 µM) | MIC (S. pneumoniae; S. pneumoniae 21D016, Clinical, c-ermB, mef): 0.5 µg/mL (≈ 0.516 µM) | MIC (S. pneumoniae; S. pneumoniae 21D020, Clinical, c-ermB, mef): 0.25 µg/mL (≈ 0.258 µM) | MIC (S. pneumoniae; S. pneumoniae 21M277, Clinical, c-ermB): 0.5 µg/mL (≈ 0.516 µM) | MIC (S. pneumoniae; S. pneumoniae 21Q352, Clinical, i-MLSB): 0.25 µg/mL (≈ 0.258 µM) | MIC (S. pneumoniae; S. pneumoniae 21Q353, Clinical, i-MLSB): 0.25 µg/mL (≈ 0.258 µM) | MIC (S. pneumoniae; S. pneumoniae 21W257, Clinical, c-ermB, mef): 0.5 µg/mL (≈ 0.516 µM) | MIC (S. pneumoniae; S. pneumoniae 21X435, Clinical): 0.016 µg/mL (≈ 0.0165 µM) | MIC (S. pneumoniae; S. pneumoniae ATCC49619): 0.016 µg/mL (≈ 0.0165 µM) | MIC (S. pneumoniae; S. pneumoniae ATCC49619, Ery-S, listed as 95g): 0.016 µg/mL (≈ 0.0165 µM) | MIC (S. pneumoniae; Streptococcus pneumoniae, ATCC49619, S. pneumoniae ATCC49619, Ery-S, read-out: MIC): 0.03 µg/mL (≈ 0.031 µM) | MIC (S. pneumoniae; Streptococcus pneumoniae, S. pneumoniae 05O173, c-ermB, mef, read-out: MIC): 2 µg/mL (≈ 2.06 µM) | MIC (S. pneumoniae; Streptococcus pneumoniae, S. pneumoniae 07P390, c-ermB, read-out: MIC): 0.12 µg/mL (≈ 0.124 µM) | MIC (S. pneumoniae; Streptococcus pneumoniae, S. pneumoniae PU09, mef, read-out: MIC): 0.06 µg/mL (≈ 0.0619 µM) | MIC (S. pyogenes; S. pyogenes 01-968, Clinical, i-ermB): 0.03 µg/mL (≈ 0.031 µM) | MIC (S. pyogenes; S. pyogenes 12-207, Clinical, mef): 0.5 µg/mL (≈ 0.516 µM) | MIC (S. pyogenes; S. pyogenes 21C303, Clinical, c-ermB): 1 µg/mL (≈ 1.03 µM) | MIC (S. pyogenes; S. pyogenes 21D184, Clinical, c-ermB): 1 µg/mL (≈ 1.03 µM) | MIC (S. pyogenes; S. pyogenes 21D199, Clinical, c-ermB): 1 µg/mL (≈ 1.03 µM) | MIC (S. pyogenes; S. pyogenes 21D200, Clinical, c-ermB): 0.5 µg/mL (≈ 0.516 µM) | MIC (S. pyogenes; S. pyogenes 21K003, Clinical, mef): 1 µg/mL (≈ 1.03 µM) | MIC (S. pyogenes; S. pyogenes 21M063, Clinical, c-ermB): 0.5 µg/mL (≈ 0.516 µM) | MIC (S. pyogenes; S. pyogenes 21W186, Clinical, c-ermTR): 2 µg/mL (≈ 2.06 µM) | MIC (S. pyogenes; Streptococcus pyogenes, S. pyogenes 12-206, c-ermTR, read-out: MIC): 0.12 µg/mL (≈ 0.124 µM) | IC50 (WT S. aureus ribosomes): 380 ± 100 nM | IC50 [3]: 460 ± 230 nM | MIC (M. catarrhalis): 0.25 µg/mL (≈ 0.258 µM) | MIC (S. aureus; S. aureus 15B196, Clinical, MRSA, c-ermB): 8 µg/mL (≈ 8.25 µM) | MIC (S. aureus; S. aureus 21B200, Clinical, MRSA, c-ermB): 8 µg/mL (≈ 8.25 µM) | MIC (S. aureus; S. aureus 21B207, Clinical, MRSA, c-ermB): 8 µg/mL (≈ 8.25 µM) | MIC (S. aureus; S. aureus 21B212, Clinical, MSSA, i-ermC): 0.25 µg/mL (≈ 0.258 µM) | MIC (S. aureus; S. aureus 21C173, Clinical, MSSA, i-ermC): 0.25 µg/mL (≈ 0.258 µM) | MIC (S. aureus; S. aureus 21C174, Clinical, MSSA, c-ermB): 1 µg/mL (≈ 1.03 µM) | MIC (S. aureus; S. aureus 21C187, Clinical, MRSA, i-ermA): 0.25 µg/mL (≈ 0.258 µM) | MIC (S. aureus; S. aureus 21D112, Clinical, MSSA, c-ermB): 64 µg/mL (≈ 66 µM) | MIC (S. aureus; S. aureus 21D115, Clinical, MSSA, i-ermC): 0.5 µg/mL (≈ 0.516 µM) | MIC (S. aureus; S. aureus 21F198, Clinical, MRSA, c-ermB): 8 µg/mL (≈ 8.25 µM) | MIC (S. aureus; S. aureus 21F206, Clinical, MSSA, c-ermB): 32 µg/mL (≈ 33 µM) | MIC (S. aureus; S. aureus 21F207, Clinical, MRSA, i-ermC): 0.25 µg/mL (≈ 0.258 µM) | MIC (S. aureus; S. aureus 21K194, Clinical, MSSA, i-ermC): 0.25 µg/mL (≈ 0.258 µM) | MIC (S. aureus; S. aureus 21N354, Clinical, MRSA, c-ermB): 8 µg/mL (≈ 8.25 µM) | MIC (S. aureus; S. aureus 21P191, Clinical, MSSA, c-ermC): 64 µg/mL (≈ 66 µM) | MIC (S. aureus; S. aureus 21P404, Clinical, MSSA, i-ermC): 0.5 µg/mL (≈ 0.516 µM) | MIC (S. aureus; S. aureus 21P407, Clinical, MRSA, c-ermB): 16 µg/mL (≈ 16.5 µM) | MIC (S. aureus; S. aureus 21Q253, Clinical, MRSA, c-ermB): 4 µg/mL (≈ 4.13 µM) | MIC (S. aureus; S. aureus 21R216, Clinical, MSSA, c-ermC): 64 µg/mL (≈ 66 µM) | MIC (S. aureus; S. aureus 21T141, Clinical, MRSA, c-ermB): 4 µg/mL (≈ 4.13 µM) | MIC (S. aureus; S. aureus 21X388, Clinical, i-ermA (MRSA in Table S9, MSSA in Fig. 2a)): 0.25 µg/mL (≈ 0.258 µM) | MIC (S. aureus; S. aureus 21Y223, Clinical, MRSA, i-ermC): 0.5 µg/mL (≈ 0.516 µM) | MIC (S. aureus; S. aureus ATCC29213): 0.25 µg/mL (≈ 0.258 µM) | MIC (S. aureus; S. aureus PU32, Clinical, MRSA, i-ermA): 0.25 µg/mL (≈ 0.258 µM) | MIC50 (S. aureus; Staphylococcus aureus, All S. aureus (24)): 1 µg/mL (≈ 1.03 µM) | MIC50 (S. aureus; [5]): 4 µg/mL (≈ 4.13 µM) | MIC90 (S. aureus; [5]): 8 µg/mL (≈ 8.25 µM) | MIC50 (S. aureus; Staphylococcus aureus, MSSA, MSSA (10)): 0.5 µg/mL (≈ 0.516 µM) | MIC (S. aureus; Staphylococcus aureus, S. aureus 15B196, c-ermB, read-out: MIC): 8 µg/mL (≈ 8.25 µM) | MIC (S. aureus; Staphylococcus aureus, S. aureus PU32, i-ermA, read-out: MIC): 0.5 µg/mL (≈ 0.516 µM) | MIC50 (S. aureus; Staphylococcus aureus, c-MLSB (constitutive) S. aureus (13)): 8 µg/mL (≈ 8.25 µM) | MIC90 (S. aureus; Staphylococcus aureus, c-MLSB S. aureus (13)): 64 µg/mL (≈ 66 µM) | MIC50 (S. aureus; [6]): 0.25 µg/mL (≈ 0.258 µM) | MIC90 (S. aureus; [6]): 0.5 µg/mL (≈ 0.516 µM) | MIC90 (S. aureus; Staphylococcus aureus, MSSA (10)): 64 µg/mL (≈ 66 µM) | dual-reporter inhibition zone colour [4]: red color inhibition zone
